The text below walks through data of ChEMBL document CHEMBL1201862, “PubChem BioAssay data set” (2004).

Each structure is given as a SMILES string.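 Results reflect a 48-hour exposure of cells in 96-well plates to compound at five concentrations. GI50 is the concentration that inhibits growth by half.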 The source made the active and inactive calls. Cut-off read from the data, not from the text of the source: active = GI50 up to about 1.1 µM and inactive = higher.

Among the test systems are 786-0; ACHN; CAKI-1; DU-145; EKVX; HOP-62; IGROV-1; MCF7; NCI-H23; NCI/ADR-RES; OVCAR-4; OVCAR-5; OVCAR-8; PC-3; SF-295; SF-539; SNB-19; U-251; UACC-257; RXF 393.
Common to all, as to experiment: growth of human tumour cells (NCI), 48 h

Consider `CC(C)(C)OC(=O)Cn1ncn(NC(=O)Cc2ccccc2)c1=S`, for which the GI50 in the assay with 786-0, in the assay with ACHN, in the assay on CAKI-1, in the assay on DU-145, with EKVX and in the assay with HOP-62 was > 10 µM (inactive) throughout. Also, the GI50 with IGROV-1, with MCF7, with NCI-H23, in the assay with NCI/ADR-RES, with OVCAR-4 and in the assay with OVCAR-5 was > 10 µM (inactive) throughout. The GI50 in the assay on OVCAR-8, in the assay with PC-3, in the assay on SF-295, in the assay on SF-539, with SNB-19 and with U-251 was > 10 µM (inactive) each time. For the same compound, the GI50 in the assay on UACC-257 was > 10 µM (inactive).
For the compound `Cc1cccc(Cl)c1NCC(O)CN1CCN(C)CC1` (stereo unspecified), the GI50 in the assay on 786-0, in the assay with ACHN, in the assay with CAKI-1, with DU-145, in the assay on EKVX and in the assay on HOP-62 was > 100 µM (inactive) each time. For the same compound, the GI50 in the assay on IGROV-1, in the assay with NCI-H23, in the assay with NCI/ADR-RES, in the assay with OVCAR-4, with OVCAR-5 and with OVCAR-8 was > 100 µM (inactive) throughout. For the same compound, the GI50 in the assay with PC-3, in the assay with RXF 393, with SF-295, in the assay on SNB-19, in the assay on U-251 and in the assay with UACC-257 was > 100 µM (inactive) each time.
With `O=C(NC(CS)C(=O)O)c1c2ccccc2nc2ccccc12` (stereo unspecified), the GI50 in the assay with 786-0 is > 100 µM (inactive); in the assay with ACHN it was 21.3 µM (inactive); in the assay on CAKI-1 it was > 100 µM (inactive); in the assay on DU-145, 30.7 µM (inactive); in the assay with EKVX, 47.5 µM (inactive); in the assay with HOP-62, 38.7 µM (inactive). Further, the GI50 in the assay on IGROV-1 is 38 µM (inactive); in the assay with MCF7, 49.3 µM (inactive); with NCI-H23, 11.2 µM (inactive); with NCI/ADR-RES, 67.9 µM (inactive); with OVCAR-4, > 100 µM (inactive); in the assay with OVCAR-5, > 100 µM (inactive). The GI50 with OVCAR-8 was 49.1 µM (inactive); with PC-3, 23.9 µM (inactive); in the assay on SF-295, 21.5 µM (inactive); with SF-539 it was > 100 µM (inactive); in the assay with SNB-19, 23.7 µM (inactive); in the assay on U-251, 75 µM (inactive). Further, the GI50 in the assay with UACC-257 is 13.7 µM (inactive).
On to `CCOC(=O)C1C(c2ccc(O)c(OC)c2)c2c(n[nH]c2O)CC1(C)O` (stereo unspecified), for which the GI50 in the assay on 786-0, with ACHN, in the assay on CAKI-1, in the assay with DU-145, in the assay with EKVX and in the assay with HOP-62 was > 100 µM (inactive) each time. Also, the GI50 in the assay with IGROV-1, with MCF7, with NCI-H23, with NCI/ADR-RES, in the assay on OVCAR-4 and with OVCAR-5 was > 100 µM (inactive) throughout. For the same compound, the GI50 in the assay on OVCAR-8, in the assay with PC-3, in the assay on SF-295, in the assay on SF-539, in the assay with SNB-19 and in the assay with U-251 was > 100 µM (inactive) each time. In addition, the GI50 in the assay on UACC-257 was > 100 µM (inactive).
Take `OC1(C(Sc2cc(C(F)(F)F)cc(C(F)(F)F)c2)Sc2cc(C(F)(F)F)cc(C(F)(F)F)c2)C=CCCC1` (stereo unspecified): the GI50 in the assay with 786-0 was 2.39 µM (inactive); in the assay with ACHN, 1.85 µM (inactive); in the assay with CAKI-1, 1.79 µM (inactive); in the assay on DU-145, 2.53 µM (inactive); in the assay with EKVX, 2.22 µM (inactive); in the assay with HOP-62, 3.25 µM (inactive). Moreover, the GI50 with IGROV-1 is 2.38 µM (inactive); with MCF7, 1.49 µM (inactive); with NCI-H23, 2.58 µM (inactive); in the assay on NCI/ADR-RES, 2.93 µM (inactive); in the assay with OVCAR-4, 1.74 µM (inactive); in the assay on OVCAR-5, 0.847 µM (active). The GI50 with OVCAR-8 was 2.12 µM (inactive); in the assay with RXF 393, 1.75 µM (inactive); in the assay with SF-295, 1.86 µM (inactive); with SNB-19, 2.49 µM (inactive); in the assay on UACC-257, 1.2 µM (inactive).
With `COc1ccc(C[N+]23C(CC[C@H]2c2ccccc2)CC[C@H]3c2ccccc2)cc1` (stereo partly specified), the GI50 in the assay on 786-0 was 39.4 µM (inactive); in the assay with ACHN, 67.6 µM (inactive); with CAKI-1, 75.5 µM (inactive); in the assay on DU-145 it was 23.8 µM (inactive); in the assay with EKVX, 15.4 µM (inactive); with HOP-62, 21 µM (inactive). For the same compound, the GI50 was 10.9 µM (inactive) with IGROV-1; 14.7 µM (inactive) in the assay on MCF7; 13.1 µM (inactive) in the assay on OVCAR-4; 32.3 µM (inactive) in the assay with OVCAR-5; 22.9 µM (inactive) with OVCAR-8; 20 µM (inactive) in the assay with PC-3. Further, the GI50 is 13.8 µM (inactive) with RXF 393; 26.1 µM (inactive) with SF-295; 27.2 µM (inactive) with SNB-19; 18.6 µM (inactive) in the assay on U-251; 5.22 µM (inactive) in the assay on UACC-257.
Consider `N#C[C@](CO)(NC(=O)OCc1ccccc1)C(F)F`, for which the GI50 in the assay with 786-0, in the assay on ACHN, in the assay with CAKI-1, in the assay on DU-145, with EKVX and in the assay on HOP-62 was > 100 µM (inactive) in each case. Further, the GI50 in the assay on IGROV-1, in the assay on NCI-H23, with NCI/ADR-RES, in the assay with OVCAR-4, in the assay on OVCAR-5 and with OVCAR-8 was > 100 µM (inactive) in each case. The GI50 in the assay on PC-3, in the assay with RXF 393, in the assay with SF-295, in the assay with SNB-19, with U-251 and with UACC-257 was > 100 µM (inactive) in each case.
`O=C(O)Cc1cccc2c(=O)c3ccccc3oc12`: the GI50 in the assay on 786-0, in the assay with ACHN, with CAKI-1, in the assay on DU-145, in the assay on EKVX and in the assay on HOP-62 was > 100 µM (inactive) in each case. In addition, the GI50 in the assay on IGROV-1, in the assay on MCF7, in the assay with NCI-H23, with NCI/ADR-RES, in the assay with OVCAR-4 and in the assay on OVCAR-8 was > 100 µM (inactive) in each case. Further, the GI50 in the assay on PC-3, with SF-295, with SF-539, in the assay on SNB-19, in the assay on U-251 and with UACC-257 was > 100 µM (inactive) throughout.
As to `O=C(Nc1ccc(Cl)cc1)Oc1ccc(C(=S)Nc2ccc(Br)cc2)cc1`, the GI50 is 16 µM (inactive) in the assay with 786-0; 12.2 µM (inactive) in the assay on ACHN; 7.78 µM (inactive) in the assay on CAKI-1; 25.8 µM (inactive) with DU-145; 2.49 µM (inactive) in the assay with EKVX; 39.3 µM (inactive) in the assay on HOP-62. The GI50 in the assay with IGROV-1 is 2.05 µM (inactive); in the assay on MCF7, 11.7 µM (inactive); in the assay on NCI-H23 it was 27.7 µM (inactive); in the assay with NCI/ADR-RES, 9.53 µM (inactive); with OVCAR-4 it was 7.4 µM (inactive); in the assay with OVCAR-5 it was 4.05 µM (inactive). Further, the GI50 is 6.01 µM (inactive) with OVCAR-8; 21.1 µM (inactive) in the assay with PC-3; 0.438 µM (active) in the assay with SF-295; 15.5 µM (inactive) in the assay with SF-539; 34.4 µM (inactive) in the assay on SNB-19; 20.5 µM (inactive) in the assay with U-251. Moreover, in the assay with UACC-257, the GI50 was 15.5 µM (inactive).
Turning to `COC(=O)CC[N+]1([O-])CC1`, the GI50 in the assay on 786-0, in the assay on ACHN, with DU-145, in the assay with EKVX, in the assay with HOP-62 and in the assay with IGROV-1 was > 100 µM (inactive) throughout. The GI50 in the assay with MCF7, in the assay with NCI-H23, in the assay on NCI/ADR-RES, in the assay on OVCAR-4, with OVCAR-5 and in the assay on OVCAR-8 was > 100 µM (inactive) each time. Also, the GI50 in the assay with RXF 393, with SF-295, with SF-539, in the assay on SNB-19, in the assay with U-251 and in the assay on UACC-257 was > 100 µM (inactive) throughout.
`COC(=O)c1cc2ccc(N)nc2[nH]c1=O`: the GI50 in the assay on 786-0, in the assay on ACHN, with CAKI-1, in the assay on EKVX, in the assay with HOP-62 and in the assay with IGROV-1 was > 100 µM (inactive) in each case. Moreover, the GI50 in the assay with MCF7, in the assay on NCI-H23, in the assay with NCI/ADR-RES, with OVCAR-4, in the assay with OVCAR-5 and with OVCAR-8 was > 100 µM (inactive) throughout. Also, the GI50 with PC-3, with RXF 393, in the assay with SF-295, in the assay with SF-539, in the assay with SNB-19 and with U-251 was > 100 µM (inactive) in each case. In the assay on UACC-257, the GI50 was > 100 µM (inactive).
